Patent US20160122320A1, “USEFUL COMBINATIONS OF MONOBACTAM ANTIBIOTICS WITH BETA-LACTAMASE INHIBITORS” (Basilea Pharmaceutica AG, priority 2005, published 2016)
Structures can show the parent of a compound that is named as a salt.

Key:
Test in all cases: MIC, NCCLS broth microdilution
Assay type in all cases: cell-based
Acinetobacter sp. J2 = conditions: Acinetobacter sp. J2; MIC of antibiotic compound 1 with the labelled bridged monobactam of formula II and clavulanate, 4 mg/L each
[1] = tested on: Pseudomonas aeruginosa MK1184; conditions: MIC of antibiotic compound 1 with the labelled bridged monobactam of formula II and clavulanate, 4 mg/L each
Method: (§1) Antimicrobial activity of the compounds and of their combinations was determined against a selection of organisms according to the standard procedures described by the National Committee for Clinical Laboratory Standards (National Committee for Clinical Laboratory. Standards (2000). Methods for Dilution Antimicrobial Susceptibility Tests for Bacteria That Grow Aerobically-Fifth Edition: Approved Standard M7-A5. NCCLS, Wayne, Pa., USA).
(§2) In all cases the final concentration of DMSO incubated with the bacteria is less than or equal to 1%. […] Plates were incubated overnight at an appropriate temperature (30° C. or 37° C.) and optical densities assessed by eye. The MIC value is defined as the lowest compound concentration completely inhibiting visible growth of the test organism. When combinations between compounds of formula I with compounds of formula II and are evaluated the compounds of formula I are tested in dilution series as described above while the compounds of formula II and III-XIII were present in all wells at a constant concentration of 4 μg/mL each.

[2] = tested on: Pseudomonas aeruginosa 1973E; conditions: MIC of antibiotic compound 1 with the labelled bridged monobactam of formula II and clavulanate, 4 mg/L each
Outline: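 MIC read by eye as the lowest concentration giving no visible growth after overnight incubation (30° C. or 37° C.), following NCCLS M7-A5 microdilution with ≤1% final DMSO. For combinations, partner compounds (formula II, III-XIII) were fixed at 4 μg/mL each while formula I compounds were titrated.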

Enterobacter cloacae P99 = conditions: MIC of antibiotic compound 1 with the labelled bridged monobactam of formula II and clavulanate, 4 mg/L each
[3] = tested on: Klebsiella pneumoniae CF104; conditions: MIC of antibiotic compound 1 with the labelled bridged monobactam of formula II and clavulanate, 4 mg/L each
Method: as §1, §2

Serratia marcescens S6 = conditions: MIC of antibiotic compound 1 with the labelled bridged monobactam of formula II and clavulanate, 4 mg/L each
[4] = tested on: Stenotrophomonas malthophilia 1AC736; conditions: Stenotrophomonas malthophilia 1AC736; MIC of antibiotic compound 1 with the labelled bridged monobactam of formula II and clavulanate, 4 mg/L each

SMILES	MIC of antibiotic at fixed inhibitor concentration (4 mg/L) (Acinetobacter sp. J2) [µg/mL]	MIC of antibiotic at fixed inhibitor concentration (4 mg/L) [1] [µg/mL]	MIC of antibiotic at fixed inhibitor concentration (4 mg/L) [2] [µg/mL]	MIC of antibiotic at fixed inhibitor concentration (4 mg/L) (Enterobacter cloacae P99) [µg/mL]	MIC of antibiotic at fixed inhibitor concentration (4 mg/L) [3] [µg/mL]	MIC of antibiotic at fixed inhibitor concentration (4 mg/L) (Serratia marcescens S6) [µg/mL]	MIC of antibiotic at fixed inhibitor concentration (4 mg/L) [4] [µg/mL]
O=C(C[n+]1cccc(-c2ccccc2)c1)N1CC[C@@H]2[C@H]1C(=O)N2S(=O)(=O)[O-] [Compound 124, (1S,5R)-7-oxo-2-[2-(3-phenylpyridinium)acetyl]-2,6-diazabicyclo[3.2.0]heptane-6-sulfonate, inner salt]	>32	32	8	32	0.125	0.25	0.125
O=C(N[C@@H]1CCNC1)c1ccc[n+](CC(=O)N2CC[C@@H]3[C@H]2C(=O)N3S(=O)(=O)[O-])c1 [Compound 125, 2-(2-{3-[N-((3R)pyrrolidin-3-yl)carbamoyl]pyridinium}acetyl)(1S,5R)-7-oxo-2,6-diazabicyclo[3.2.0]heptane-6-sulfonate, inner salt]	4	16	8	32	<0.06	0.5	0.125
NC(=O)c1c[n+](CC(=O)N2CC[C@@H]3[C@H]2C(=O)N3S(=O)(=O)[O-])ccc1N [Compound 126, (1S,5R)-2-[2-(4-amino-3-carbamoylpyridinium)acetyl]-7-oxo-2,6-diazabicyclo[3.2.0]heptane-6-sulfonate, inner salt]	2	16	8	32	>32	0.125	0.125
O=C(CSc1nnnn1-c1ccccc1)N1CC[C@@H]2[C@H]1C(=O)N2S(=O)(=O)[O-].[Na+] [Compound 201]	4	32	8	32	>32	2	0.125
Cc1nnc(SCC(=O)N2CC[C@@H]3[C@H]2C(=O)N3S(=O)(=O)[O-])s1.[Na+] [Compound 202, Sodium(1S,5R)-2-[2-(1-methyl(1,3,4-thiadiazol-2-ylthio))acetyl]-7-oxo-2,6-diazabicyclo[3.2.0]heptane-6-sulfonate]	4	8	4	16	2	0.5	0.125
CN(C)n1ccc(SCC(=O)N2CC[C@@H]3[C@H]2C(=O)N3S(=O)(=O)O)nc1=O [Compound 203, (1S,5R)-2-{2-[1-(dimethylamino)-2-oxohydropyrimidin-4-ylthio]acetyl}-7-oxo-2,6-diazabicyclo[3.2.0]heptane-6-sulfonic acid]	2	32	4	32	1	0.25	8
O=C(C[n+]1ccccc1)Nc1ccc(SCC(=O)N2CC[C@@H]3[C@H]2C(=O)N3S(=O)(=O)[O-])cc1 [Compound 204, (1S,5R)-7-oxo-2-{2-[4-(2-pyridiniumacetylamino)phenylthio]acetyl}-2,6-diazabicyclo[3.2.0]heptane-6-sulfonate, inner salt]	2	32	4	8	2	0.25	8
Cn1nnnc1SCC(=O)N1CC[C@@H]2[C@H]1C(=O)N2S(=O)(=O)[O-].[Na+] [Compound 206]	4	>32	4	8	0.25	4	0.125
